Columns and labels:
[1] = in DMPC; cited from earlier work
[2] = target: T1, GPCR μ with opioids (hMOP) (Homo sapiens, UniProt P35372); experiment: Fluorescence spectra of SH-SY5Y cells overexpressing hMOP, marked with pyrene-ketone-cholesterol (4), before and after agonist addition (FIG. 2); format: cell-based; details: agonist under saturation conditions, probe of formula (4)
T1 construct: expressed in transfected cells; host or cells: SH-SY5Y neuroblastoma cells
T1 sequence (P35372 whole entry): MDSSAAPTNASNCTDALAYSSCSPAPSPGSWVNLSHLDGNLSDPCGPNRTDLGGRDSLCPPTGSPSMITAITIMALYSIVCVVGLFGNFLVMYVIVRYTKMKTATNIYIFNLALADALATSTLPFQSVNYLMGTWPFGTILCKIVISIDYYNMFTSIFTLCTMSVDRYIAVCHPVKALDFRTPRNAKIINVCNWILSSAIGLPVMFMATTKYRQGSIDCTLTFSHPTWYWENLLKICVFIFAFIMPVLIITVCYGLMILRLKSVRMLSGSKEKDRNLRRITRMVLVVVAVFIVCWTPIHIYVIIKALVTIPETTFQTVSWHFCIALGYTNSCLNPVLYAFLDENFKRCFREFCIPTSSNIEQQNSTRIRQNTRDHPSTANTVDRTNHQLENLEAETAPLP
Protocol: Confluence cells immobilised on a 22 by 22 mm silica slice are placed in a 35 mm diameter Petri dish and covered by 1.2 ml of a 0.22 μm-filtered solution and composed of 15 ml of base medium (DMEM with 1% foetal calf serum) plus 1 ml solution of methyl-β-cyclodextrins loaded with Pyrene cholesterol (4) or (7). The mixture is left to incubate at 37° C. for between 1 and 15 mn according to the desired marking rate. Then the medium is replaced 4 times with 1.2 ml of PBS Ca++Mg++.
The images are produced with a Zeiss axioplanll microscope using a 63× oil-immersion objective (Plan-Neofluoar, NA=1.4) and a CCD camera (C2400-75i Hamamatsu) equipped with the Argus 20 system (Hamamatsu) which removes the background noise directly on the preparation corresponding to the following mounting: after the slice carrying the marked cells has been turned upside-down on a slide provided with cross-pieces, a chamber the volume of which is close to 120 μl is thus produced and filled with DMEM medium . […]
The fluorescence spectra are produced on these mountings on an AMINCO 500 spectrofluorimeter. The excitation wavelength is 335 nm bp 5 nm, the emission spectrum being recorded after 370 nm bp 4 nm and with a resolution of 0.25 nm per point.

| SMILES | melting point [°C] | further results |
| --- | --- | --- |
| CC(C)CCC[C@@H](C)[C@H]1CC[C@H]2[C@@H]3CC=C4C[C@@H](O)CC[C@]4(C)[C@H]3CC[C@]12C [cholesterol] | – | solubility in membrane lipids [1]: 68% |
| C[C@@H](NC(=O)[C@@H](N)Cc1ccc(O)cc1)C(=O)NCC(=O)N(C)[C@@H](Cc1ccccc1)C(=O)NCCO [DAMGO] | – | change of membrane polarity (band I1 intensity, I3 and I4 unchanged) after addition of the agonist [2]: reduction in the membrane polarity |
| C[C@]12CC[C@H]3[C@@H](CC=C4C[C@@H](O)CC[C@@]43C)[C@@H]1CC[C@@H]2C(=O)CCc1ccc2ccc3cccc4ccc1c2c34 [pyrene-ketone-cholesterol, 3β-hydroxy-pregn-5-ene-21-(1-methylpyrenyl)-20-one] | 199 | – |
| C=C(CCc1ccc2ccc3cccc4ccc1c2c34)[C@H]1CC[C@H]2[C@@H]3CC=C4C[C@@H](O)CC[C@]4(C)[C@H]3CC[C@]12C | 84 | – |

— US8211881B2, “Cholesterol-mimetic pyrene probes” (Centre National de la Recherche Scientifique, priority 2005, dated 2012)
